The values that follow are results of earlier work, collected in patent publication US5173304A, “Agents for the treatment of severe pain and preparation of said agents” (Dolorgiet Beteiligungs GmbH, priority 1989, dated 1992).

The conditions of this data set: in vivo.

For the compound `CC(C)Cc1ccc(C(C)C(=O)O)cc1` (centres unmarked) [ibuprofen], the Analgesic effectiveness entry is listed as “effective analgesic” and the Tolerability entry was “well tolerated”.
